Test results: patent publication US5330994A, “Tetrahydropyridine isoxazoline derivatives” (Warner-Lambert Company, priority 1992, dated 1994)
Where a name gives a salt, the structure may show the parent alone.

Key:
sigma binding site = target: T1, sigma binding site (Rattus norvegicus, UniProt Q9R0C9); test: Sigma binding affinity using [^3 H]-(+)-3-(3'-hydroxyphenyl)-N-(1'-propyl)-piperdine (3PPP); conditions: [^3 H]PPP radioligand
T1 construct: from tissue
Procedure: (§1) Sigma binding affinities are measured using [^3 H]-(+)-3-(3'-hydroxyphenyl)-N-(1'-propyl)-piperdine, referred to in the following Table I as 3PPP. This test is carried out according to the procedures of B. L. Largent, et al, Proc. Natl. Acad. Sci., USA, 1984; 81:5618. The ability of the compounds to bind muscarinic antagonist sites was determined invitro using [^3 H]quinuclidinyl benzylate (RQNB) according to the procedure of M. Watson, J. Pharmacol. Exp. Ther. 1986; 237-411.

[1] = system: muscarinic antagonist sites; test: Binding to muscarinic antagonist sites using [^3 H]quinuclidinyl benzylate (RQNB); conditions: [^3 H]quinuclidinyl benzylate radioligand
Procedure: as §1

T1 sequence (Q9R0C9 whole entry): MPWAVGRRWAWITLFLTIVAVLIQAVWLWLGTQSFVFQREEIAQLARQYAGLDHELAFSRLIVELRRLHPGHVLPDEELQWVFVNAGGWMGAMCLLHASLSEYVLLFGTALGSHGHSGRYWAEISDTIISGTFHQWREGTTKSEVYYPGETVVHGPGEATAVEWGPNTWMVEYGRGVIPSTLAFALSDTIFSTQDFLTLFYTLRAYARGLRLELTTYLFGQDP

Row | IC50 (sigma binding site) | RQNB % Inhibition @ 1 μM [1] | SMILES
1 | 7.05 nM | 10% | CCCN1CCC=C(C2=NOC(c3ccccc3)C2)C1 (stereo not shown) [Example 1, 3-[3'-(1'-propyl-1', 2', 5', 6'-tetrahydropyridinyl)]-5-phenyl-2-isoxazoline]
2 | 39.1 nM | 7% | CCCN1CCC=C(C2=NOC(c3ccc(OC)cc3)C2)C1 (stereo not shown) [Example 2, 3-[3'-(1'-Propyl-1', 2', 5', 6'-tetrahydropyridinyl) ]-5-(4'-methoxyphenyl)-2-isoxazoline]
3 | 1.03 nM | 22% | CCCN1CCC=C(C2=NOC(c3ccc(Cl)cc3)C2)C1 (stereo not shown) [Example 3, 3-[3'-(1'-Propyl-1', 2', 5', 6'-tetrahydropyridinyl)]-5-(4'-chlorophenyl)-2-isoxazoline]
4 | 0.78 nM | 10% | CCCN1CCC=C(c2cc(-c3ccccc3)no2)C1 [Example 4A, 3-phenyl-5-[3'-(1'-propyl-1', 2', 5', 6'-tetrahydropyridinyl)]isoxazole oxalate]
5 | 8.8 nM | 4% | CCCN1CCC=C(c2cc(-c3ccccc3)on2)C1 [Example 4B, 3-[3'-(1'-propyl-1', 2', 5', 6'-tetrahydropyridinyl)]-5-phenylisoxazole oxalate]
6 | 0.067 nM | 10% | CCCN1CCC=C(c2cc(-c3ccc(C)cc3)no2)C1 [Example 5A, 3-(4'-Methylphenyl)-5-[3'-(1'-propyl-1', 2', 5', 6'-tetrahydropyridinyl)]isoxazole oxalate]
7 | 0.62 nM | 6% | CCCN1CCC=C(c2cc(-c3ccc(C)cc3)on2)C1 [Example 5B, 3-[3'-(1'-propyl-1', 2', 5', 6'-tetrahydropyridinyl)]-5-(4'-methylphenyl)isoxazole oxalate]
8 | 4 nM | 15% | CCCN1CCC=C(c2cc(-c3cccc(OC)c3)no2)C1 [Example 6A, 3-(3'-Methoxyphenyl)-5-[3'-(1'-propyl-1', 2', 5', 6'-tetrahydropyridinyl)]isoxazole oxalate]
9 | 0.1 nM | 7% | CCCN1CCC=C(c2cc(-c3cccc(OC)c3)on2)C1 [Example 6B, 3-[3'-(1'-propyl-1', 2', 5', 6'-tetrahydropyridinyl)]-5-(3'-methoxyphenyl)isoxazole oxalate]
10 | 0.45 nM | 10% | CCCN1CCC=C(c2cc(-c3cccc(C)c3)no2)C1 [Example 7A, 3-(3'-Methylphenyl)-5-[3'-(1'-propyl-1', 2', 5', 6'-tetrahydropyridinyl)]isoxazole oxalate]
11 | 9.9 nM | 10% | CCCN1CCC=C(c2cc(-c3cccc(C)c3)on2)C1 [Example 7B, 3-[3'-(1'-propyl-1', 2', 5', 6'-tetrahydropyridinyl)]-5-(3'-methylphenyl)isoxazole oxalate]
12 | 3640 nM | 40% | CCCN1CCC=C(c2cc(-c3ccccc3C)no2)C1 [Example 8A, 3-(2'-Methylphenyl)-5-[3'-(1'-propyl-1', 2', 5', 6'-tetrahydropyridinyl)]isoxazole oxalate]
13 | 546 nM | 12% | CCCN1CCC=C(c2cc(-c3ccccc3C)on2)C1 [Example 8B, 3-[3'-(1'-propyl-1', 2', 5', 6'-tetrahydropyridinyl)]-5-(2'-methylphenyl)isoxazole oxalate]
14 | > 10000 nM | 23% | CCCN1CCC=C(c2cc(-c3ccccc3OC)no2)C1 [Example 9A, 3-(2'-Methoxyphenyl)-5-[3'-(1'-propyl-1', 2', 5', 6'-tetrahydropyridinyl)]isoxazole oxalate]
15 | 10000 nM | 12% | CCCN1CCC=C(c2cc(-c3ccccc3OC)on2)C1 [Example 9B, 3-[3'-(1'-propyl-1', 2', 5', 6'-tetrahydropyridinyl)]-5-(2'-methoxyphenyl)isoxazole oxalate]
16 | 10000 nM | 11% | CCCN1CCC=C(c2cc(-c3ccc(OC)cc3)no2)C1 [Example 14A, 3-(4'-Methoxyphenyl)-5-[3'-(1'-propyl-1', 2', 5', 6'-tetrahydropyridinyl)]isoxazole oxalate]
17 | 1470 nM | 9% | CCCN1CCC=C(c2cc(-c3ccc(OC)cc3)on2)C1 [Example 14B, 3-[3'-(1'-propyl-1', 2', 5', 6'-tetrahydropyridinyl)]-5-(4'-methoxyphenyl)isoxazole oxalate]
